According to ChEMBL document CHEMBL1149518, “High affinity inhibitors of the dopamine transporter (DAT): novel biotinylated ligands for conjugation to quantum dots” (Bioorg Med Chem Lett, 2006):

Target: Sodium-dependent dopamine transporter (Homo sapiens, UniProt Q01959)
Assay: Inhibition of [3H]dopamine uptake at dopamine transporter

Sequence of Sodium-dependent dopamine transporter (Q01959 whole entry): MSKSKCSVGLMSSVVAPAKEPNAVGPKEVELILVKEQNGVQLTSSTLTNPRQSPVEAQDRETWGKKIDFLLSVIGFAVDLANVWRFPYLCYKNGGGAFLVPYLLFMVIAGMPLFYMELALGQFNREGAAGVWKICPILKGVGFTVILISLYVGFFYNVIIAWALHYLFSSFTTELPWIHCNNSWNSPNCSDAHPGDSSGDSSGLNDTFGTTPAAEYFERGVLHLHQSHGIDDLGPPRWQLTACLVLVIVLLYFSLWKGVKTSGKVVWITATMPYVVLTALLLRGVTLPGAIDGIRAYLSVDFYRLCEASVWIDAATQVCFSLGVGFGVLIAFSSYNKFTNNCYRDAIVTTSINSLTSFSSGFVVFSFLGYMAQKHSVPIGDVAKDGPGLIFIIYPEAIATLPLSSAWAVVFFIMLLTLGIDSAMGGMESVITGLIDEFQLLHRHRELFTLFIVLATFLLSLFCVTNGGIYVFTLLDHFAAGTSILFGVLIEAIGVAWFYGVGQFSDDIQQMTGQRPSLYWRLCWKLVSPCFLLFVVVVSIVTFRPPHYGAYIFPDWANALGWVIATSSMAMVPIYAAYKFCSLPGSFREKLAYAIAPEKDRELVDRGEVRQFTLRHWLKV

| SMILES | IC50 [nM] |
| --- | --- |
| O=C(CCCCCCCCCCS)Nc1ccc(CCCN2CCN(CCOC(c3ccccc3)c3ccccc3)CC2)cc1 | 10 |
| O=C(CCCCCCCCCCS)Nc1ccc(CCCN2CCN(CCOC(c3ccc(F)cc3)c3ccc(F)cc3)CC2)cc1 | 18 |
